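Results reflect a 48-hour exposure of cells in 96-well plates to compound at five concentrations. At the GI50, growth is halved. The concentration for full growth arrest is given as TGI.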
How the values were obtained:
Assay in all cases: DTP human tumour cell line panel, 48 h
786-0 renal = tested on: 786-0 renal
A498 renal = tested on: A498 renal
A549 NSCLC = tested on: A549 NSCLC
ACHN renal = tested on: ACHN renal
BT-549 breast = tested on: BT-549 breast
CAKI-1 renal = tested on: CAKI-1 renal
CCRF-CEM leukemia = tested on: CCRF-CEM leukemia
COLO 205 colon = tested on: COLO 205 colon
DU-145 prostate = tested on: DU-145 prostate
EKVX NSCLC = tested on: EKVX NSCLC
HCC-2998 colon = tested on: HCC-2998 colon
HCT-116 colon = tested on: HCT-116 colon
HCT-15 colon = tested on: HCT-15 colon
HL-60(TB) leukemia = tested on: HL-60(TB) leukemia
HOP-62 NSCLC = tested on: HOP-62 NSCLC
HOP-92 NSCLC = tested on: HOP-92 NSCLC
HS 578T breast = tested on: HS 578T breast
HT29 colon = tested on: HT29 colon
IGROV1 ovarian = tested on: IGROV1 ovarian
K-562 leukemia = tested on: K-562 leukemia
KM12 colon = tested on: KM12 colon
LOX IMVI melanoma = tested on: LOX IMVI melanoma
M14 melanoma = tested on: M14 melanoma
MALME-3M melanoma = tested on: MALME-3M melanoma
MCF7 breast = tested on: MCF7 breast
MDA-MB-231 breast = tested on: MDA-MB-231 breast
MDA-MB-435 = tested on: MDA-MB-435
MOLT-4 leukemia = tested on: MOLT-4 leukemia
NCI-H226 lung = tested on: NCI-H226 lung
NCI-H23 lung = tested on: NCI-H23 lung
NCI-H460 lung = tested on: NCI-H460 lung
NCI-H522 lung = tested on: NCI-H522 lung
NCI/ADR-RES ovarian = tested on: NCI/ADR-RES ovarian
OVCAR-3 ovarian = tested on: OVCAR-3 ovarian
OVCAR-4 ovarian = tested on: OVCAR-4 ovarian
OVCAR-5 ovarian = tested on: OVCAR-5 ovarian
OVCAR-8 ovarian = tested on: OVCAR-8 ovarian
PC-3 prostate = tested on: PC-3 prostate
RPMI-8226 leukemia = tested on: RPMI-8226 leukemia
RXF 393 renal = tested on: RXF 393 renal
SF-268 CNS = tested on: SF-268 CNS
SF-295 CNS = tested on: SF-295 CNS
SF-539 CNS = tested on: SF-539 CNS
SK-MEL-2 melanoma = tested on: SK-MEL-2 melanoma
SK-MEL-28 melanoma = tested on: SK-MEL-28 melanoma
SK-MEL-5 melanoma = tested on: SK-MEL-5 melanoma
SK-OV-3 ovarian = tested on: SK-OV-3 ovarian
SN12C renal = tested on: SN12C renal
SNB-19 CNS = tested on: SNB-19 CNS
SNB-75 CNS = tested on: SNB-75 CNS
SR leukemia = tested on: SR leukemia
SW-620 colon = tested on: SW-620 colon
T-47D breast = tested on: T-47D breast
TK-10 renal = tested on: TK-10 renal
U251 CNS = tested on: U251 CNS
UACC-257 melanoma = tested on: UACC-257 melanoma
UACC-62 melanoma = tested on: UACC-62 melanoma
UO-31 renal = tested on: UO-31 renal

How did the GI50 (786-0 renal) turn out when COc1ccc2nc(NNC(=O)c3cnccn3)c3cccn3c2c1 was run?
The GI50 was 321 nM.

And the TGI (786-0 renal)?
The TGI was 5610 nM.

What about the GI50 (A498 renal) of the same compound?
Its GI50 is 684 nM.

What about the TGI (A498 renal) of the same compound?
The TGI was 9500 nM.

And the GI50 (A549 NSCLC)?
Its GI50 is 269 nM.

And the TGI (A549 NSCLC)?
Its TGI is 14300 nM.

What about the GI50 (ACHN renal) of the same compound?
Its GI50 is 114 nM.

What about the TGI (ACHN renal) of the same compound?
The TGI was 7520 nM.

What about the GI50 (BT-549 breast) of the same compound?
Its GI50 is 857 nM.

And the TGI (BT-549 breast)?
Its TGI is 21000 nM.

What about the GI50 (CAKI-1 renal) of the same compound?
The GI50 was 248 nM.

What about the TGI (CAKI-1 renal) of the same compound?
Its TGI is 15500 nM.

And the GI50 (CCRF-CEM leukemia)?
The GI50 was 91.9 nM.

What about the TGI (CCRF-CEM leukemia) of the same compound?
The TGI was > 100000 nM.

What about the GI50 (COLO 205 colon) of the same compound?
The GI50 was 331 nM.

And the TGI (COLO 205 colon)?
The TGI was 8280 nM.

What about the GI50 (DU-145 prostate) of the same compound?
Its GI50 is 283 nM.

And the TGI (DU-145 prostate)?
The TGI was 26700 nM.

What about the GI50 (EKVX NSCLC) of the same compound?
Its GI50 is 268 nM.

And the TGI (EKVX NSCLC)?
The TGI was 18900 nM.

And the GI50 (HCC-2998 colon)?
The GI50 was 522 nM.

And the TGI (HCC-2998 colon)?
The TGI was > 52500 nM.

And the GI50 (HCT-116 colon)?
Its GI50 is 195 nM.

And the TGI (HCT-116 colon)?
Its TGI is 5260 nM.

And the GI50 (HCT-15 colon)?
The GI50 was 61.1 nM.

What about the TGI (HCT-15 colon) of the same compound?
The TGI was 2460 nM.

And the GI50 (HL-60(TB) leukemia)?
The GI50 was 270 nM.

What about the GI50 (HOP-62 NSCLC) of the same compound?
Its GI50 is 118 nM.

What about the TGI (HOP-62 NSCLC) of the same compound?
The TGI was 20000 nM.

What about the GI50 (HOP-92 NSCLC) of the same compound?
Its GI50 is 930 nM.

And the TGI (HOP-92 NSCLC)?
The TGI was 9650 nM.

What about the GI50 (HS 578T breast) of the same compound?
Its GI50 is 2450 nM.

And the TGI (HS 578T breast)?
The TGI was > 59900 nM.

What about the GI50 (HT29 colon) of the same compound?
The GI50 was 414 nM.

What about the TGI (HT29 colon) of the same compound?
The TGI was > 67100 nM.

What about the GI50 (IGROV1 ovarian) of the same compound?
The GI50 was 132 nM.

What about the TGI (IGROV1 ovarian) of the same compound?
The TGI was 2320 nM.

What about the GI50 (K-562 leukemia) of the same compound?
The GI50 was 351 nM.

What about the TGI (K-562 leukemia) of the same compound?
The TGI was > 100000 nM.

And the GI50 (KM12 colon)?
Its GI50 is 321 nM.

What about the TGI (KM12 colon) of the same compound?
The TGI was > 21000 nM.

And the GI50 (LOX IMVI melanoma)?
The GI50 was 177 nM.

What about the TGI (LOX IMVI melanoma) of the same compound?
The TGI was 1780 nM.

And the GI50 (M14 melanoma)?
Its GI50 is 208 nM.

What about the TGI (M14 melanoma) of the same compound?
The TGI was 2850 nM.

What about the GI50 (MALME-3M melanoma) of the same compound?
The GI50 was 639 nM.

What about the TGI (MALME-3M melanoma) of the same compound?
Its TGI is 15400 nM.

And the GI50 (MCF7 breast)?
The GI50 was 270 nM.

What about the TGI (MCF7 breast) of the same compound?
The TGI was 2770 nM.

And the GI50 (MDA-MB-231 breast)?
Its GI50 is 833 nM.

And the TGI (MDA-MB-231 breast)?
Its TGI is 17600 nM.

And the GI50 (MDA-MB-435)?
Its GI50 is 572 nM.

And the TGI (MDA-MB-435)?
The TGI was > 100000 nM.

And the GI50 (MOLT-4 leukemia)?
Its GI50 is 201 nM.

And the TGI (MOLT-4 leukemia)?
The TGI was > 100000 nM.

What about the GI50 (NCI-H226 lung) of the same compound?
The GI50 was 428 nM.

What about the TGI (NCI-H226 lung) of the same compound?
The TGI was 6820 nM.

And the GI50 (NCI-H23 lung)?
The GI50 was 545 nM.

And the TGI (NCI-H23 lung)?
The TGI was > 36000 nM.

And the GI50 (NCI-H460 lung)?
Its GI50 is 134 nM.

And the TGI (NCI-H460 lung)?
The TGI was 3880 nM.

And the GI50 (NCI-H522 lung)?
The GI50 was 363 nM.

What about the TGI (NCI-H522 lung) of the same compound?
Its TGI is 11500 nM.

And the GI50 (NCI/ADR-RES ovarian)?
The GI50 was 207 nM.

And the TGI (NCI/ADR-RES ovarian)?
The TGI was 2090 nM.

And the GI50 (OVCAR-3 ovarian)?
The GI50 was 236 nM.

And the TGI (OVCAR-3 ovarian)?
Its TGI is > 22300 nM.

And the GI50 (OVCAR-4 ovarian)?
Its GI50 is 171 nM.

What about the TGI (OVCAR-4 ovarian) of the same compound?
The TGI was 5070 nM.

And the GI50 (OVCAR-5 ovarian)?
Its GI50 is 704 nM.

And the TGI (OVCAR-5 ovarian)?
Its TGI is > 100000 nM.

And the GI50 (OVCAR-8 ovarian)?
Its GI50 is 303 nM.

What about the TGI (OVCAR-8 ovarian) of the same compound?
Its TGI is > 47300 nM.

What about the GI50 (PC-3 prostate) of the same compound?
The GI50 was 227 nM.

What about the TGI (PC-3 prostate) of the same compound?
The TGI was > 100000 nM.

And the GI50 (RPMI-8226 leukemia)?
Its GI50 is 312 nM.

And the TGI (RPMI-8226 leukemia)?
Its TGI is > 100000 nM.

And the GI50 (RXF 393 renal)?
Its GI50 is 663 nM.

What about the TGI (RXF 393 renal) of the same compound?
The TGI was 7590 nM.

And the GI50 (SF-268 CNS)?
The GI50 was 227 nM.

What about the TGI (SF-268 CNS) of the same compound?
The TGI was 19400 nM.

And the GI50 (SF-295 CNS)?
The GI50 was 219 nM.

What about the TGI (SF-295 CNS) of the same compound?
The TGI was 4350 nM.

And the GI50 (SF-539 CNS)?
Its GI50 is 362 nM.

What about the TGI (SF-539 CNS) of the same compound?
The TGI was 10600 nM.

What about the GI50 (SK-MEL-2 melanoma) of the same compound?
The GI50 was 688 nM.

And the TGI (SK-MEL-2 melanoma)?
The TGI was > 100000 nM.

What about the GI50 (SK-MEL-28 melanoma) of the same compound?
The GI50 was 382 nM.

And the TGI (SK-MEL-28 melanoma)?
The TGI was 29800 nM.

What about the GI50 (SK-MEL-5 melanoma) of the same compound?
The GI50 was 537 nM.

What about the TGI (SK-MEL-5 melanoma) of the same compound?
The TGI was 4390 nM.

And the GI50 (SK-OV-3 ovarian)?
Its GI50 is 540 nM.

And the TGI (SK-OV-3 ovarian)?
Its TGI is 9090 nM.

And the GI50 (SN12C renal)?
The GI50 was 426 nM.

And the TGI (SN12C renal)?
Its TGI is 13900 nM.

And the GI50 (SNB-19 CNS)?
The GI50 was 350 nM.

What about the TGI (SNB-19 CNS) of the same compound?
Its TGI is 28000 nM.

And the GI50 (SNB-75 CNS)?
Its GI50 is 408 nM.

And the TGI (SNB-75 CNS)?
Its TGI is 9310 nM.

What about the GI50 (SR leukemia) of the same compound?
The GI50 was 121 nM.

And the TGI (SR leukemia)?
The TGI was > 100000 nM.

What about the GI50 (SW-620 colon) of the same compound?
The GI50 was 315 nM.

What about the GI50 (T-47D breast) of the same compound?
Its GI50 is 433 nM.

What about the TGI (T-47D breast) of the same compound?
The TGI was 25500 nM.

What about the GI50 (TK-10 renal) of the same compound?
The GI50 was 329 nM.

And the TGI (TK-10 renal)?
The TGI was > 100000 nM.

What about the GI50 (U251 CNS) of the same compound?
Its GI50 is 184 nM.

What about the TGI (U251 CNS) of the same compound?
Its TGI is 7160 nM.

And the GI50 (UACC-257 melanoma)?
The GI50 was 689 nM.

What about the TGI (UACC-257 melanoma) of the same compound?
Its TGI is 7620 nM.

And the GI50 (UACC-62 melanoma)?
Its GI50 is 278 nM.

What about the TGI (UACC-62 melanoma) of the same compound?
Its TGI is 2480 nM.

And the GI50 (UO-31 renal)?
Its GI50 is 110 nM.

What about the TGI (UO-31 renal) of the same compound?
The TGI was 4980 nM.

Reference: PubChem BioAssay (NCI)
